From ChEMBL document CHEMBL1134031, “Dimeric L-dopa derivatives as potential prodrugs” (Bioorg Med Chem Lett, 2001)
Values joined by “and” are separate entries in the source; they are usually repeats but may differ in a detail not shown here. Equal entries are not always repeated.

Experiments:
[1] = human, plasma
Description: (§1) Half life period in 80% human plasma at 37 degree Centigrade

[2] = human, plasma; remark: listed apart in the source
Description: (§2) Observed rate constant in 80% human plasma at 37 degree Centigrade

[3] = pH 1.3
Description: Observed rate constant at a pH of 1.3

[4] = pH 7.4
Description: Observed rate constant at a pH of 7.4

[5] = human, plasma; remark: listed apart in the source
Description: as §2

in vitro [6] = settings: rat, 80% rat plasma
Description: Half life period in 80% rat plasma at 37 degree Centigrade

physchem [7] = settings: dog, in vivo, pH 7.4
Description: Half life period at a pH 7.4 was determined

physchem [8] = settings: pH 1.3
Description: Half life period at a pH 1.3 was determined

physchem [9] = settings: octanol/phosphate buffer, pH 7.4
Description: Partition coefficient value in octanol and phosphate buffer (log P) at pH of 7.4 was determined.

in vitro [10] = settings: human, 80% human plasma, T1/2
Description: as §1

Description for Rattus norvegicus: Observed rate constant in 80% rat plasma at 37 degree Centigrade

T1/2 [1]	k1 obs [2] [min⁻¹]	K obs (Rattus norvegicus) [min⁻¹]	K obs [3] [h⁻¹]	K obs [4] [h⁻¹]	k2 obs [5] [min⁻¹]	half-life (in vitro [6]) [h]	half-life (physchem [7]) [h]	half-life (physchem [8]) [h]	logD (physchem [9])	half-life (in vitro [10]) [h]	SMILES
1.698 h and 4.62 h	0.0068	0.028	0.042	0.049	0.0025	0.407	14.2	16.5	1.04	–	COC(=O)[C@H](Cc1ccc(OC(C)=O)c(OC(C)=O)c1)NC(=O)N[C@@H](Cc1ccc(OC(C)=O)c(OC(C)=O)c1)C(=O)OC
2.547 h	0.0083	0.11	0.032	0.049	0.0045	0.102	14.2	20	0.73	1.38	COC(=O)[C@H](Cc1ccc(OC(C)=O)c(OC(C)=O)c1)NC(=O)C(=O)N[C@@H](Cc1ccc(OC(C)=O)c(OC(C)=O)c1)C(=O)OC
–	0.081	0.17	0.014	0.04	0.01	0.0683	17.3	48.8	0.92	–	COC(=O)[C@H](Cc1ccc(OC(C)=O)c(OC(C)=O)c1)NC(=O)CCCCC(=O)N[C@@H](Cc1ccc(OC(C)=O)c(OC(C)=O)c1)C(=O)OC
–	0.052	0.34	0.13	0.043	0.0086	0.0333	16.2	55.4	0.85	–	COC(=O)[C@H](Cc1ccc(OC(C)=O)c(OC(C)=O)c1)NC(=O)CCC(=O)N[C@@H](Cc1ccc(OC(C)=O)c(OC(C)=O)c1)C(=O)OC
1.05 h and 2.57 h	0.011	0.24	0.01	0.05	0.0045	0.0483	13.9	68.1	0.87	–	COC(=O)[C@H](Cc1ccc(OC(C)=O)c(OC(C)=O)c1)NC(=O)CCCC(=O)N[C@@H](Cc1ccc(OC(C)=O)c(OC(C)=O)c1)C(=O)OC
